Laboratory results from US10640506B2, “Cyclobutyl substituted pyrrolopyridine and pyrrolopyrimidines derivatives as JAK inhibitors” (Incyte Corporation, priority 2010, dated 2020).
Structures can show the parent of a compound that is named as a salt. Where two headings read alike, the source gives them in different places.

Tests used:
[1] = biological target: human JAK1 (a.a. 837-1142) (Homo sapiens, UniProt P23458); experiment: In vitro JAK kinase assay (HTRF, phosphorylation of biotinylated peptide), JAK1; format: biochemical; conditions: 1 mM ATP
Description: Compounds herein were tested for inhibitory activity of JAK targets according to the following in vitro assay described in Park et al., Analytical Biochemistry 1999, 269, 94-104. The catalytic domains of human JAK1 (a.a. 837-1142) and JAK2 (a.a. 828-1132) with an N-terminal His tag were expressed using baculovirus in insect cells and purified. The catalytic activity of JAK1 and JAK2 was assayed by measuring the phosphorylation of a biotinylated peptide. The phosphorylated peptide was detected by homogenous time resolved fluorescence (HTRF). […] Reactions were carried out at room temperature for 1 hour and then stopped with 20 μL 45 mM EDTA, 300 nM SA-APC, 6 nM Eu-Py20 in assay buffer (Perkin Elmer, Boston, Mass.). Binding to the Europium labeled antibody took place for 40 minutes and HTRF signal was measured on a Fusion plate reader (Perkin Elmer, Boston, Mass.). […] Data is indicated as ranges, wherein “+” is less than 10 nM; “++” is 10 nM to 25 nM; “+++” is greater than 25 nM to 100 nM; and “++++” is greater than 100 nM. Greater than 25 nM to 100 nM specifies a range with a lower endpoint “at greater than 25 nM” and an upper endpoint at 100 nM.

[2] = biological target: T1, JAK2 (a.a. 828-1132) (Homo sapiens, UniProt O60674); experiment: In vitro JAK kinase assay (HTRF, phosphorylation of biotinylated peptide), JAK2; format: biochemical; conditions: 1 mM ATP
T1 construct: JAK2 (a.a. 828-1132); His tag (N)
Description: Compounds herein were tested for inhibitory activity of JAK targets according to the following in vitro assay described in Park et al., Analytical Biochemistry 1999, 269, 94-104. The catalytic domains of human JAK1 (a.a. 837-1142) and JAK2 (a.a. 828-1132) with an N-terminal His tag were expressed using baculovirus in insect cells and purified. The catalytic activity of JAK1 and JAK2 was assayed by measuring the phosphorylation of a biotinylated peptide. The phosphorylated peptide was detected by homogenous time resolved fluorescence (HTRF). […] Reactions were carried out at room temperature for 1 hour and then stopped with 20 μL 45 mM EDTA, 300 nM SA-APC, 6 nM Eu-Py20 in assay buffer (Perkin Elmer, Boston, Mass.). Binding to the Europium labeled antibody took place for 40 minutes and HTRF signal was measured on a Fusion plate reader (Perkin Elmer, Boston, Mass.). See Tables A-F for data related to compounds of the Examples (at 1 mM). Data is indicated as ranges, wherein “+” is less than 10 nM; “++” is 10 nM to 25 nM; “+++” is greater than 25 nM to 100 nM; and “++++” is greater than 100 nM. Greater than 25 nM to 100 nM specifies a range with a lower endpoint “at greater than 25 nM” and an upper endpoint at 100 nM.

T1 sequence (O60674 828-1132): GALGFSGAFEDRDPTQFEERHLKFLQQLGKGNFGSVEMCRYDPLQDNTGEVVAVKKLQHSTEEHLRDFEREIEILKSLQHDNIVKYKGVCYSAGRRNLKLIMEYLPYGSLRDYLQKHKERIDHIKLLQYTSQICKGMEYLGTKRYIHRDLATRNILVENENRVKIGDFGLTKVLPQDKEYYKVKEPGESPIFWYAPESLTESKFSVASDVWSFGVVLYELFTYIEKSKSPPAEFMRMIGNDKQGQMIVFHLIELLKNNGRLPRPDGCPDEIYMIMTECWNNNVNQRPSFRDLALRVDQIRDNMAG
human JAK1 (a.a. 837-1142), sequence (P23458 849-1154): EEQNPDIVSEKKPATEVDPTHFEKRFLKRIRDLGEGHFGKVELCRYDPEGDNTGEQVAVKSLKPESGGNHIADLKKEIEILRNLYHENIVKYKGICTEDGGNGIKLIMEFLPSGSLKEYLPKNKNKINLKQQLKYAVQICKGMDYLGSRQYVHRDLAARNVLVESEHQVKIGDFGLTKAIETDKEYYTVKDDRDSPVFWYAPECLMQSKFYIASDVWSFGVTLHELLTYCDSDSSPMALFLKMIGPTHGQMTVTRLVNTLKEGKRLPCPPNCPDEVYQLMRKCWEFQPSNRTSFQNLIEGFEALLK

Q: `CC(C)(O)c1cc(OC2CCN([C@H]3C[C@](CC#N)(n4cc(-c5ncnc6[nH]ccc56)cn4)C3)CC2)nc(C(F)(F)F)c1` (single isomer, unassigned) [Example 125, {trans-3-(4-{[4-(1-hydroxy-1-methylethyl)-6-(trifluoromethyl)pyridin-2-yl]oxy}piperidin-1-yl)-1-[4-(7H-pyrrolo[2,3-d]pyrimidin-4-yl)-1H-pyrazol-1-yl]cyclobutyl}acetonitrile] was tested. Which IC50 ([1]; Table F) did it give?
A: < 10 nM

Q: And the IC50 ([2]; Table F)?
A: 25 to 100 nM

Q: What does the source list for `N#CC[C@]1(n2cc(-c3ncnc4[nH]ccc34)cn2)C[C@H](N2CCN(C(=O)c3ccnc(C(F)(F)F)n3)CC2)C1` [Example 7b, [trans-1-[4-(7H-pyrrolo[2,3-d]pyrimidin-4-yl)-1H-pyrazol-1-yl]-3-(4-{[2-(trifluoromethyl)pyrimidin-4-yl]carbonyl}piperazin-1-yl)cyclobutyl]acetonitrile]?
A: IC50 ([1]; Table B, read-out: JAK1 IC50): < 10 nM; IC50 ([2]; Table B, read-out: JAK2 IC50): 25 to 100 nM

Q: How did the IC50 ([1]; Table F) turn out when `N#CC[C@]1(n2cc(-c3ncnc4[nH]ccc34)cn2)C[C@H](N2CCN(C(=O)NC3CCC3)CC2)C1` [Example 99, 4-{trans-3-(cyanomethyl)-3-[4-(7H-pyrrolo[2,3-d]pyrimidin-4-yl)-1H-pyrazol-1-yl]cyclobutyl}-N-cyclobutylpiperazine-1-carboxamide] was run?
A: < 10 nM

Q: And the IC50 ([2]; Table F)?
A: 25 to 100 nM

Q: For `C[C@H]1CCCN1Cc1cc(F)cc(OC2CCN(C3CC(CC#N)(n4cc(-c5ncnc6[nH]ccc56)cn4)C3)CC2)c1` (single isomer, unassigned; isomer 1) [Example 41, isomer 1], which IC50 ([1]; read-out: JAK1 IC50 (nM) at 1 mM, Table E) is on record?
A: < 10 nM

Q: And the IC50 ([2]; Table E, listed as 41, isomer 1, read-out: JAK2 IC50 (nM) +)?
A: 10 to 25 nM

Q: For `N#CC[C@]1(n2cc(-c3ncnc4[nH]ccc34)cn2)C[C@H](N2CCN(C(=O)c3cncc(F)c3)CC2)C1` [Example 10b, {trans-3-{4-[(5-fluoropyridin-3-yl)carbonyl]piperazin-1-yl}-1-[4-(7H-pyrrolo[2,3-d]pyrimidin-4-yl)-1H-pyrazol-1-yl]cyclobutyl}acetonitrile tris(trifluoroacetate) Salt], which IC50 ([1]; Table B, read-out: JAK1 IC50) is on record?
A: < 10 nM

Q: What about the IC50 ([2]; Table B, read-out: JAK2 IC50) of the same compound?
A: 25 to 100 nM

Q: How did the IC50 ([1]; Table F) turn out when `CN(C)Cc1cc(Cl)nc(OC2CCN([C@H]3C[C@](CC#N)(n4cc(-c5ncnc6[nH]ccc56)cn4)C3)CC2)c1` [Example 141, {trans-3-[4-({6-chloro-4-[(dimethylamino)methyl]pyridin-2-yl}oxy)piperidin-1-yl]-1-[4-(7H-pyrrolo[2,3-d]pyrimidin-4-yl)-1H-pyrazol-1-yl]cyclobutyl}acetonitrile] was run?
A: < 10 nM

Q: What about the IC50 ([2]; Table F) of the same compound?
A: < 10 nM

Q: Which IC50 ([1]; Table A, read-out: JAK1 IC50) does the source give for `N#CC[C@]1(n2cc(-c3ncnc4[nH]ccc34)cn2)C[C@@H](N2CCN(C(=O)c3cncc(C(F)(F)F)n3)CC2)C1` [Example 14a, [cis-1-[4-(7H-pyrrolo[2,3-d]pyrimidin-4-yl)-1H-pyrazol-1-yl]-3-(4-{[6-(trifluoromethyl)pyrazin-2-yl]carbonyl}piperazin-1-yl)cyclobutyl]acetonitrile] here?
A: < 10 nM

Q: What about the IC50 ([2]; Table A, read-out: JAK2 IC50) of the same compound?
A: 25 to 100 nM

Q: Which results are given for `CN(C)Cc1cc(OC2CCN([C@H]3C[C@](CC#N)(n4cc(-c5ncnc6[nH]ccc56)cn4)C3)CC2)cc(C(F)F)c1` [Example 140, {trans-3-(4-{3-(difluoromethyl)-5-[(dimethylamino)methyl]phenoxy}piperidin-1-yl)-1-[4-(7H-pyrrolo[2,3-d]pyrimidin-4-yl)-1H-pyrazol-1-yl]cyclobutyl}acetonitrile]?
A: IC50 ([1]; Table F): 10 to 25 nM; IC50 ([2]; Table F): > 100 nM

Q: Which IC50 ([1]; Table A, read-out: JAK1 IC50) does the source give for `N#CC[C@]1(n2cc(-c3ncnc4[nH]ccc34)cn2)C[C@@H](N2CCN(C(=O)c3cccc(C(F)(F)F)c3F)CC2)C1` [Example 22, {cis-3-{4-[2-fluoro-3-(trifluoromethyl)benzoyl]piperazin-1-yl}-1-[4-(7H-pyrrolo[2,3-d]pyrimidin-4-yl)-1H-pyrazol-1-yl]cyclobutyl}acetonitrile] here?
A: < 10 nM

Q: And the IC50 ([2]; Table A, read-out: JAK2 IC50)?
A: 25 to 100 nM

Q: What does the source list for `N#CC[C@]1(n2cc(-c3ncnc4[nH]ccc34)cn2)C[C@@H](N2CCN(C(=O)c3ccnc(C(F)(F)F)c3F)CC2)C1` [Example 6a, {cis-3-{4-[3-fluoro-2-(trifluoromethyl)isonicotinoyl]piperazin-1-yl}-1-[4-(7H-pyrrolo[2,3-d]pyrimidin-4-yl)-1H-pyrazol-1-yl]cyclobutyl}acetonitrile]?
A: IC50 ([1]; Table A, read-out: JAK1 IC50): 10 to 25 nM; IC50 ([2]; Table A, read-out: JAK2 IC50): > 100 nM

Q: For `CC(C)[C@@H](C)NC(=O)N1CCN([C@H]2C[C@](CC#N)(n3cc(-c4ncnc5[nH]ccc45)cn3)C2)CC1` [Example 93, 4-{trans-3-(cyanomethyl)-3-[4-(7H-pyrrolo[2,3-d]pyrimidin-4-yl)-1H-pyrazol-1-yl]cyclobutyl}-N-[(1R)-1,2-dimethylpropyl]piperazine-1-carboxamide], which IC50 ([1]; Table F) is on record?
A: < 10 nM

Q: And the IC50 ([2]; Table F)?
A: 25 to 100 nM

Q: Which results are given for `CN(C)S(=O)(=O)N1CCN([C@H]2C[C@](CC#N)(n3cc(-c4ncnc5[nH]ccc45)cn3)C2)CC1` [Example 37, 4-{trans-3-(cyanomethyl)-3-[4-(7H-pyrrolo[2,3-d]pyrimidin-4-yl)-1H-pyrazol-1-yl]cyclobutyl}-N,N-dimethylpiperazine-1-sulfonamide]?
A: IC50 ([1]; Table B, read-out: JAK1 IC50): < 10 nM; IC50 ([2]; Table B, read-out: JAK2 IC50): < 10 nM

Q: How did the IC50 ([1]; Table F) turn out when `N#CC[C@]1(n2cc(-c3ncnc4[nH]ccc34)cn2)C[C@H](N2CCN(C(=O)N3CC[C@H](O)C3)CC2)C1` [Example 91, {trans-3-(4-{[(3S)-3-hydroxypyrrolidin-1-yl]carbonyl}piperazin-1-yl)-1-[4-(7H-pyrrolo[2,3-d]pyrimidin-4-yl)-1H-pyrazol-1-yl]cyclobutyl}acetonitrile] was run?
A: 25 to 100 nM

Q: What about the IC50 ([2]; Table F) of the same compound?
A: > 100 nM

Q: Which IC50 ([1]; Table F) does the source give for `N#CC[C@]1(n2cc(-c3ncnc4[nH]ccc34)cn2)C[C@H](N2CCC(Oc3cc(CNCCCO)cc(C(F)(F)F)n3)CC2)C1` [Example 155, {trans-3-(4-{[4-{[(3-hydroxypropyl)amino]methyl}-6-(trifluoromethyl)pyridin-2-yl]oxy}piperidin-1-yl)-1-[4-(7H-pyrrolo[2,3-d]pyrimidin-4-yl)-1H-pyrazol-1-yl]cyclobutyl}acetonitrile] here?
A: < 10 nM

Q: What about the IC50 ([2]; Table F) of the same compound?
A: 25 to 100 nM

Q: Which IC50 ([1]; Table F) does the source give for `COCc1cc(C(=O)N2CCN([C@H]3C[C@](CC#N)(n4cc(-c5ncnc6[nH]ccc56)cn4)C3)CC2)nc(C(F)(F)F)c1` [Example 76, {trans-3-(4-{[4-(methoxymethyl)-6-(trifluoromethyl)pyridin-2-yl]carbonyl}piperazin-1-yl)-1-[4-(7H-pyrrolo[2,3-d]pyrimidin-4-yl)-1H-pyrazol-1-yl]cyclobutyl}acetonitrile] here?
A: < 10 nM

Q: What about the IC50 ([2]; Table F) of the same compound?
A: 10 to 25 nM

Q: Which results are given for `COCc1cc(OC2CCN([C@H]3C[C@@](CC#N)(n4cc(-c5ncnc6[nH]ccc56)cn4)C3)CC2)nc(C(F)(F)F)c1` (single isomer, unassigned) [Example 121, {cis-3-(4-{[4-(methoxymethyl)-6-(trifluoromethyl)pyridin-2-yl]oxy}piperidin-1-yl)-1-[4-(7H-pyrrolo[2,3-d]pyrimidin-4-yl)-1H-pyrazol-1-yl]cyclobutyl}acetonitrile]?
A: IC50 ([1]; Table F): 25 to 100 nM; IC50 ([2]; Table F): > 100 nM

Q: For `N#CC[C@]1(n2cc(-c3ncnc4[nH]ccc34)cn2)C[C@H](N2CCN(C(=O)c3cncc(C(F)(F)F)n3)CC2)C1` [Example 14b, [trans-1-[4-(7H-pyrrolo[2,3-d]pyrimidin-4-yl)-1H-pyrazol-1-yl]-3-(4-{[6-(trifluoromethyl)pyrazin-2-yl]carbonyl}piperazin-1-yl)cyclobutyl]acetonitrile], which IC50 ([1]; Table B, read-out: JAK1 IC50) is on record?
A: < 10 nM

Q: What about the IC50 ([2]; Table B, read-out: JAK2 IC50) of the same compound?
A: 25 to 100 nM

Q: With `N#CC[C@]1(n2cc(-c3ncnc4[nH]ccc34)cn2)C[C@@H](N2CCC(Oc3cc(CO)cc(C(F)(F)F)n3)CC2)C1` (single isomer, unassigned) [Example 124, {cis-3-(4-{[4-(hydroxymethyl)-6-(trifluoromethyl)pyridin-2-yl]oxy}piperidin-1-yl)-1-[4-(7H-pyrrolo[2,3-d]pyrimidin-4-yl)-1H-pyrazol-1-yl]cyclobutyl}acetonitrile] as the compound, how does the IC50 ([1]; Table F) read?
A: 25 to 100 nM

Q: What about the IC50 ([2]; Table F) of the same compound?
A: > 100 nM
